One assay has as its system RPMI-8226. The assay is described as follows: Growth inhibition of human RPMI8226 cells. Format: functional, cell-based.
Assay [1] is described as follows: Inhibition of tubulin polymerization.
Assay [2] in a line: Inhibition of tubulin polymerization at 100 uM.

Molecules are shown by their SMILES. Activity calls are given as the source filed them. The calls are words filed in the database; no cut-off is given here.

Experimental findings from ChEMBL document CHEMBL1140832, “Antimitotic quinoid triterpenes from Maytenus chuchuhuasca” (Bioorg Med Chem Lett, 2008) are described below.

As a reminder, the IC50 is the point on the concentration scale where inhibition reaches its midpoint. A lower IC50 goes with greater potency.

For the molecule `CC[C@]1(O)C[C@@H]2CN(CCc3c([nH]c4ccccc34)[C@@](C(=O)OC)(c3cc4c(cc3OC)N(C)[C@H]3[C@@](O)(C(=O)OC)[C@H](OC(C)=O)[C@]5(CC)C=CCN6CC[C@]43[C@@H]65)C2)C1` [VINBLASTINE], the figures for the half-maximal inhibitory concentration (IC50) (with RPMI-8226; in assay [1]) were 0.028 µM and 1 µM, respectively.
Consider `COc1c(O)cc2c(c1C)C(=O)C=C1[C@@]2(C)CC[C@@]2(C)[C@@H]3C[C@@H](C)C(=O)C[C@]3(C)CC[C@]12C`, for which the result in assay [2] was inactive.
With `CC1=C(O)C(=O)C=C2C1=CC=C1[C@@]2(C)CC[C@@]2(C)[C@@H]3C[C@](C)(C(=O)O)CC[C@]3(C)CC[C@]12C` [CELASTROL], the IC50 in the assay with RPMI-8226 worked out at 3 µM; in assay [1], 2 µM.
`CC1=C(O)C(=O)C=C2C1=CC=C1[C@@]2(C)CC[C@@]2(C)[C@@H]3C[C@@H](C)C(=O)C[C@]3(C)CC[C@]12C` [TINGENONE]: the 50% inhibitory concentration (IC50) came to 7 µM in the assay on RPMI-8226 and 8 µM in assay [1].
The matching figures for `CC1=C(O)C(=O)C=C2C1=CC=C1[C@@]2(C)CC[C@@]2(C)[C@@H]3C[C@@H](C)C(=O)[C@@H](O)[C@]3(C)CC[C@]12C` [TINGENIN B]: 18.3 µM and 12 µM.
Consider `COC(=O)[C@]1(C)CC[C@]2(C)CC[C@]3(C)C4=CC(=O)c5c(cc(O)c(O)c5C)[C@]4(C)CC[C@@]3(C)[C@@H]2C1`, for which the result in assay [2] was inactive.
For `COC(=O)[C@]1(C)CC[C@]2(C)CC[C@]3(C)C4=CC=C5C(=CC(=O)C(O)=C5C)[C@]4(C)CC[C@@]3(C)[C@@H]2C1` [PRISTIMERIN], the 50% inhibitory concentration (IC50) with RPMI-8226 worked out at 16.6 µM; in assay [1], 8 µM.
